The text below walks through data of EP3898610B1, “NOVEL AZA-HEXAPHENE ANTIBIOTIC COMPOUNDS” (Fondazione Istituto Insubrico di Ricerca per la Vita, priority 2018, dated 2020).

Data set [1] concerns L4187 E. faecium VanA - Lnz R - Cpx R. The data set can be described thus: microbe, parasite or virus in culture. Format: cell-based. To be noted: Enterococcus faecium; L4187 E. faecium VanA - Lnz R - Cpx R; cation-adjusted Mueller Hinton Broth, 35°C, 18-24 hours; read-out: MIC. The procedure: Antibacterial activity. […] Each bacterial strain was inoculated with 2-5×10^5 CFU/ml, Candida albicans with 10^4 CFU/ml. Cultures were incubated at 35°C in air. After 18-24 hours visual readings were performed and MICs (Minimal Inhibitory Concentrations) determined. The effect of 30% bovine serum was determined under the same experimental conditions. The strains used were clinical isolates or strains from American Type Culture Collection (ATCC).

Another data set deals with VA645601 B. clausii. Put plainly: MIC, broth microdilution (CLSI). In kind it is cell-based. To be noted: Shouchella clausii, 35°C, 18-24 hours. The procedure:
(§1) Antibacterial activity. The antimicrobial activity of the antibiotic 103/33-F710 was determined by the broth microdilution method according to the procedures published by the Clinical and Laboratory Standards Institute (CLSI), formerly the National Committee for Clinical Laboratory Standards (NCCLS) (document M07-A9). Microorganisms were grown in either cation-adjusted Mueller Hinton Broth (Staphylococci, Enterococci, Moraxella catarrhalis, Escherichia coli), Todd Hewitt medium (Streptococci) or RPMI 1640 medium for Candida albicans on 96-well microtiter plates. Each bacterial strain was inoculated with 2-5×10^5 CFU/ml, Candida albicans with 10^4 CFU/ml. Cultures were incubated at 35°C in air. After 18-24 hours visual readings were performed and MICs (Minimal Inhibitory Concentrations) determined. The effect of 30% bovine serum was determined under the same experimental conditions. The strains used were clinical isolates or strains from American Type Culture Collection (ATCC). The antibiotic 103/33-F710 was dissolved in DMSO to obtain a 1000 µg/ml stock solution, and subsequently diluted in water to obtain working solution. Table 5: Antimicrobial activity reported as MIC (µg/ml) of ID103/33-F710
A general note: Dilution methods test growth across graded concentrations, often in twofold steps.

Data set [2] has as its system VA801801 L. monocytogenes. The data set can be described thus: MIC, broth microdilution (CLSI). In kind it is cell-based. The note with it: Listeria monocytogenes, 35°C, 18-24 hours. The procedure: as §1
The test system of a further data set is VA827901 B. cereus. Put plainly: MIC, broth microdilution (CLSI). In kind it is cell-based. To be noted: Bacillus cereus, 35°C, 18-24 hours. The procedure: as §1
For the next data set, the system named is L145 C. albicans. Put plainly: MIC, broth microdilution (CLSI). Format: cell-based. The note with it: Candida albicans; L145 C. albicans; RPMI 1640 medium, 10^4 CFU/ml, 35°C, 18-24 hours; read-out: MIC. The procedure: as §1
Antibacterial activity. The antimicrobial activity of the antibiotic 103/33-F696 was determined by the broth microdilution method according to the procedures disclosed in Example 7. Table 6: Antimicrobial activity reported as MIC (µg/ml) of compound 2 (103/33-F696)
Antibacterial activity. The antimicrobial activity of the antibiotic 103/33-F712 was determined by the broth microdilution method according to the procedures disclosed in Example 7. Table 7: Antimicrobial activity reported as MIC (µg/ml) of ID103/33-F712

Data set [3] relates to Hela cells from cervix adenocarcinoma. The data set can be described thus: Cytotoxicity against human cells. Format: cell-based. To be noted: at 200 µg/ml.
Data set [4] deals with HepG2 cells from hepatocarcinoma. Put plainly: Cytotoxicity against human cells. In kind it is cell-based. To be noted: at 200 µg/ml, the highest concentration tested.
Data set [5] relates to BJ5TA - ATCC CRL-4401 normal fibroblast. The data set can be described thus: Cytotoxicity against human cells. In kind it is cell-based. The note with it: at 200 µg/ml, the highest concentration tested.
Data set [6] deals with Staphylococcus aureus Smith 819 ATCC 19636. Put plainly: Murine septicemia model. In kind it is in vivo. The note with it: ATCC19636, intravenous administrations. An excerpt:
Effectiveness. […] This level of protection was observed after intravenous administrations.

Data set [7] is described as follows: Stability as a function of pH. In kind it is physicochemical. The note with it: basic pH. As for the experimental part:
Solubility of compound 1 (103/33 F-710) was poor in most low to medium- polarity organic solvents, as well as in water from acidic to neutral pH; it was more soluble at basic pH and stable up to pH 8-9, while in alcohols it ranged between 5-10 mg/ml. […] Some crystallizations trials were performed on compound 1 (103/33 F-710) in order to obtain suitable crystals for the X-ray structural characterization.

Converted amounts (≈) assume the structure as drawn.

Broadly, the ED50 is the midpoint of the dose-response relation. The low end stands for an effect at a small dose, the high end for a need for a large dose. For the compound `COc1c(OC)c2c(=O)c3cc(C)n(C(CC4CN(C)C(=N)N4)C(=O)O)c(=O)c3c(=O)c2c2cc3c(=O)c4cc(O)cc(O)c4c(=O)c3c(OC)c12` (centres unmarked) [compound 1, 2-(10,12-Dihydroxy-6,7,8-trimethoxy-3-methyl-1,5,9,14,16-pentaoxo-5,9,14,16-tetrahydro-1H-2-aza-hexaphen-2-yl)-3-(2-imino-1-methyl-imidazolidin-4-yl)-propionic acid], the MIC came out at 2 µg/mL (≈ 2.81 µM) in data set [1]; 0.125 µg/mL (≈ 0.176 µM) against VA645601 B. clausii; 0.06 µg/mL (≈ 0.0844 µM) in data set [2]; 0.06 µg/mL (≈ 0.0844 µM) against VA827901 B. cereus; 256 µg/mL (≈ 360 µM) in the data set with L145 C. albicans. Further, the “toxicity against human cells” value is on record as “no toxicity” in data set [3] (Hela cells, the highest concentration tested); “no toxicity” in [4]; “no toxicity” in data set [5]. Also, the “inhibit replication of HeLa cell” value in data set [3] is “does not inhibit”. The 50% effect level in data set [6] (ED50) was put at a dose of 15 mg/kg. In addition, the “stable up to pH” value in data set [7] is 8-9.
